Tests used:
Format in all cases: functional
Caenorhabditis elegans [1] = experiment: Regulation of metabolic activity in […] assessed as increasing in average life span at 25 mol/L relative to control
Caenorhabditis elegans [2] = experiment: Regulation of metabolic activity in […] assessed as increasing in average life span at 50 mol/L relative to control
Caenorhabditis elegans [3] = experiment: Regulation of metabolic activity in […] assessed as increasing in average life span at 100 mol/L relative to control

SMILES: CN(C)C(=N)NC(=N)N [METFORMIN]
- Activity (Caenorhabditis elegans [1]): 18%
- Activity (Caenorhabditis elegans [2]): 36%
- Activity (Caenorhabditis elegans [3]): 3%

Source: ChEMBL document CHEMBL5233238, “Research progress on sirtuins family members and cell senescence” (2020)
